Earlier results in patent US20180028452A1, “ANTIEMETIC EXTENDED RELEASE SOLID DOSAGE FORMS” (RedHill Biopharma Ltd., priority 2013, published 2018).
Where a name gives a salt, the structure may show the parent alone.

What was measured:
[1] = scale of Pliska et al., J. Chromatog. 216, 79, 1981
[2] = water and normal saline

SMILES | hydropathy value (relative hydrophobic character) [1] | solubility [2]
N[C@@H](CC(=O)O)C(=O)O [aspartic acid] | −2.15 | –
CC[C@H](C)[C@H](N)C(=O)O [iso-leucine] | 1.83 | –
Cc1nccn1CC1CCc2c(c3ccccc3n2C)C1=O (racemic) [Ondansetron HCl dihydrate, Ondansetron hydrochloride] | – | soluble in water and normal saline
NCC(=O)O [glycine] | 0 | –
